Assay results reported in paper PMC3398342, “Cyanidin-3-O-β-glucoside regulates fatty acid metabolism via an AMP-activated protein kinase-dependent signaling pathway in human HepG2 cells” (2012).

Columns and labels:
[1] = target: T1, glycogen phosphorylase (GPPase) (Oryctolagus cuniculus, UniProt P00489); assay: phosphoglucomutase/G6PDH-coupled spectrophotometric activity assay with glycogen; activation; format: biochemical
T1 construct: gene PYGM
T1 sequence (P00489 2-843): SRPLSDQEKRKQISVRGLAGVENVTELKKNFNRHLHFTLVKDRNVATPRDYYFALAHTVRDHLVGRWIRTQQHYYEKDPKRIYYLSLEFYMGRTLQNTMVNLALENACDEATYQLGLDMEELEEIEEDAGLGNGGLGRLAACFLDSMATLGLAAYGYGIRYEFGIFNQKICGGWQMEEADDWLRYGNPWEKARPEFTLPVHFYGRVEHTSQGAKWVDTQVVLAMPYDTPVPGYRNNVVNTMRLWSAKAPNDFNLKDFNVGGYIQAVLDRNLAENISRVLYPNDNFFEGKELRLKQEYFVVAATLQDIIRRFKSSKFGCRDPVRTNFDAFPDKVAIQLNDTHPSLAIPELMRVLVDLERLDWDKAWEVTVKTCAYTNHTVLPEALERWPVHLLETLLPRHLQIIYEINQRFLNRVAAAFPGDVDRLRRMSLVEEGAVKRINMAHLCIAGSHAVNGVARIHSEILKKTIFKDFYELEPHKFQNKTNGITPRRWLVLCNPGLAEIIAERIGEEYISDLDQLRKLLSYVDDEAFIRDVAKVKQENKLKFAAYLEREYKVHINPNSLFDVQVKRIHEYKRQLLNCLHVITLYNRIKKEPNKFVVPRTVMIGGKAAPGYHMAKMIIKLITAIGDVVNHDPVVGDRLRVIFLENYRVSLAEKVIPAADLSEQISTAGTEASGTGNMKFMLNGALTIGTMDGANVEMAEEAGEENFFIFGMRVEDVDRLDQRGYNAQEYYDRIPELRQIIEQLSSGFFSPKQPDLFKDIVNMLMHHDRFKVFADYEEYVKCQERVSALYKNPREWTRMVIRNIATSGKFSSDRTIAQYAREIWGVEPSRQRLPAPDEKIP

[2] = target: T2, fructose1,6-diphosphatase (FBPase); assay: Malachite Green phosphate-release assay with D-fructose-1,6-diphosphate; format: biochemical
T2 construct: gene FBP1

## Nc1ncnc2c1ncn2[C@@H]1O[C@H](COP(=O)(O)O)[C@@H](O)[C@H]1O [AMP]
[1]
  EC50: 18.5 µM
[2]
  IC50: 1.6 µM
